Literature values as cited in patent US6645930B1, “Clean room wipes for neutralizing caustic chemicals” (EKC Technology, Inc., priority 2000, dated 2003).

What was measured:
[1] = for pKa3: third ionization constant; for pKa1: first ionization constant
[2] = at 25° C.

For O=C(O)CC(O)(CC(=O)O)C(=O)O [Citric, citric acid], the pKa3 [1] is given as 6.9.
For O=C(O)c1cc(O)c(O)c(O)c1 [Gallic, gallic acid], the pKa1 [1] is given as 4.2 and the pKa3 [1] is given as 8.9.
For O=C(O)[C@H](O)[C@@H](O)[C@H](O)[C@H](O)CO [Gluconic, gluconic acid], the pKa1 [1] is listed as 3.5 and the pKa2 ([1]; second ionization constant) is listed as 4.7.
For CC(O)CO (stereo not drawn) [propylene glycol], the vapor pressure [2] is listed as 0.02 kPascal.
